Reference: patent publication US20090105245A1, “METHODS FOR TREATING MACULAR EDEMA AND OCULAR ANGIOGENESIS USING AN ANTI-INFLAMMATORY AGENT AND A RECEPTOR TYROSINE KINASE INHIBITOR” (priority 2006, published 2009)
“Also recorded” adds a separate entry of the source.

How the values were obtained:
[1] = test system: laser-induced choroidal neovascularization in the mouse; assay: Mouse laser-induced CNV, topical NSAID drops; type: in vivo; details: for CNV lesions at Bruch's membrane rupture sites vs vehicle: follow-up experiment
Protocol: METHODS: Choroidal neovascularization was generated by modification of a previously described technique [Tobe, 1998 #448]. Briefly, 4 to 5 week old female C57BL/6J mice were anesthetized with ketamine hydrochloride (100 mg/kg body weight) and the pupils were dilated with 1% tropicamide. Three burns of 532 nm diode laser photocoagulation (75 μm spot size, 0.1 seconds duration, 120 mW) were delivered to each retina using the slit lamp delivery system of an OcuLight GL Photocoagulator (Iridex, Mountain View, Calif.) and a hand held cover slide as a contact lens. Burns were performed in the 9, 12, and 3 o'clock positions of the posterior pole of the retina. Production of a bubble at the time of laser, which indicates rupture of Bruch's membrane, is an important factor in obtaining CNV [Tobe, 1998 #448], so only burns in which a bubble was produced were included in the study. […] In some experiments, both eyes were treated with drug and these mice were compared to littermates in which both eyes were treated with vehicle. In other experiments, one eye was treated with drug and the fellow eye was treated with vehicle. Eyes were rapidly dissected for choroidal flat mounts or frozen in optimum cutting temperature embedding compound (OCT; Miles Diagnostics, Elkhart, Ind.).
The sizes of CNV lesions were measured in choroidal flat mounts (Edelman and Castro, 2000). Mice used for the flat mount technique were anesthetized and perfused with 1 ml of phosphate-buffered saline containing 50 mg/ml of fluorescein-labeled dextran (2×10^6 average mw, Sigma, St. Louis, Mo.) as previously described (Tobe et al., 1998a). The eyes were removed and fixed for 1 hour in 10% phosphate-buffered formalin. The cornea and lens were removed and the entire retina was carefully dissected from the eyecup. Radial cuts (4-7, average 5) were made from the edge to the equator and the eyecup was flat mounted in Aquamount with the sclera facing down. Flat mounts were examined by fluorescence microscopy on an Axioskop microscope (Zeiss, Thornwood, N.Y.) and images were digitized using a 3 color CCD video camera (IK-TU40A, Toshiba, Tokyo, Japan) and a frame grabber. Image-Pro Plus software (Media Cybernetics, Silver Spring, Md.) was used to measure the total area of hyperfluorescence associated with each burn, corresponding to the total fibrovascular scar. The areas within each eye were averaged to give one experimental value per eye for plotting the areas in the figures.
In some mice, the eyes were rapidly removed and frozen in optimum cutting temperature embedding compound (OCT; Miles Diagnostics, Elkhart, Ind.). Ten μm frozen sections were cut through entire lesions and the sections were histochemically stained with biotinylated Griffonia simplicifolia lectin B4 (GSA, Vector Laboratories, Burlingame, Calif.) which selectively binds to vascular cells. Slides were incubated in methanol/H2O2 for 10 minutes at 4° C., washed with 0.05 M Tris-buffered saline, pH 7.6 (TBS), and incubated for 30 minutes in 10% normal porcine serum. Slides were incubated 2 hours at room temperature with biotinylated GSA and after rinsing with 0.05M TBS, they were incubated with avidin coupled to peroxidase (Vector Laboratories) for 45 minutes at room temperature. The slides were developed with HistoMark Red (Kirkegaard and Perry, Cabin John, Md.) to give a red reaction product and counter stained with Contrast Blue (Kirkegaard and Perry).

[2] = test system: preretinal neovascularization in the mouse model of oxygen-induced retinopathy; assay: Mouse model of oxygen-induced ischemic retinopathy, topical drops; type: in vivo; details: for retinal (preretinal) neovascularization vs vehicle: P12-P17
Protocol: METHODS: Ischemic retinopathy was produced in C57BL/6J mice by a method described by Smith et al [Smith, 1994 #50]. Seven-day-old (P7) mice and their mothers were placed in an airtight incubator and exposed to an atmosphere of 75±3% oxygen for 5 days. Incubator temperature was maintained at 23±2° C., and oxygen was measured every 8 hours with an oxygen analyzer. After 5 days, the mice were removed from the incubator, placed in room air, and drug treatment was begun. Mice were given one drop four times a day in masked fashion. At P17, after 5 days of treatment, mice were sacrificed, eyes were rapidly removed and frozen in OCT.
Ocular frozen sections (10 μm) were histochemically stained with GSA as described above except that diaminobenzidine was used to give a brown reaction product. Slides were counterstained with eosin, which stains the internal limiting membrane and mounted with Cytoseal. To perform quantitative assessments, 10 μm serial sections were cut through the entire eye starting with sections that included the iris root on one side of the eye and proceeding to the iris root on the other side. Every tenth section, roughly 100 μm apart, were stained with GSA, examined with an Axioskop microscope, and images were digitized using a 3 CCD color video camera and a frame grabber. Image-Pro Plus software was used to delineate GSA-stained cells on the surface of the retina and their area was measured. For plotting the area measurements for the figure, the mean of the measurements from each eye was used as a single experimental value.

[3] = test system: retinal vasculature and neuronal function in the STZ-diabetic rat; assay: STZ-diabetic rat, topical eyedrops for 2 months or 9 months; type: in vivo
Protocol: Methods. Streptozotocin (STZ)-induced diabetic rats were assigned to 3 groups (untreated control, Nepafenac eyedrops, and vehicle eyedrops) for comparison to nondiabetic controls. Eyedrops were administered in both eyes 4 times/day using both subacute (2 mos) or chronic dosing paradigms (9 mos). During the 2 month study, prostaglandin E2 (PGE2), cyclooxygenase (COX)-2, and VEGF were measured by immunoassay, superoxide generation was measured by bioluminescence, activities of caspases 3 and 6 were measured fluorimetrically, and nitric oxide (NO) was estimated from levels of nitrite plus nitrate. Moreover, retinal leukostasis was quantified after intravenous perfusion with FITC-concanavalin A. During the 9-month study, vascular lesions associated with diabetic retinopathy were quantitated after isolation of the retinal vasculature by the trypsin digest technique, and loss of cells in the ganglion cell layer was evaluated in retinal cross-sections. In the chronic dosing study, retinal function also was assessed by measuring electroretinograms (ERGs) under dark and light adapted conditions to evaluate rod and cone pathways, respectively. The impact of topical ocular administration on corneal protease activity was assessed with MMP mRNA analysis and zymography. The signals were imported into Matlab™ (Mathworks Inc.) for further processing and the oscillatory potentials (OP's) were isolated using a 9 pole Butterworth filter with 34 Hz cutoff frequency (unity gain above 40 Hz and >12 dB attenuation 0 to 30 Hz). To simplify the analysis of OP timing the summed latency was calculated for OP's 1-4 similar to Hancock and Kraft, where TTP=(t1+t2+t3+t4) and tx=the time to peak of OPx.

VEGF mRNA = assay: Semi-quantitative RT-PCR of retinal VEGF mRNA in mice with ischemic retinopathy; type: in vivo, mouse; details: P12-P17
Protocol: Mice with ischemic retinopathy were treated with 0.1% or 0.5% Nepafenac drops or vehicle drops four times a day between P12 and P17 and then sacrificed and retinal RNA was isolated using the guanidine isothiocyanate method as described by Chomczynski and Sacchi [Chomczynski, 1987 #30]. Reverse transcription was carried out with 0.5 μg of total RNA, reverse transcriptase (SuperScript II, Life Technologies, Gaithersburg, Md.), and 5.0 μM oligo d(T) primer. Aliquots of the cDNAs were used for PCR amplification with primers specific for VEGF, (5′-TTACTGCTGTACCTCCACC-3′) and (5′-ACAGGACGGCTTGAAGATG-3′). Titrations were performed to insure that PCR reactions were carried out in the linear range of amplification. Mouse S16 ribosomal protein primers (5′-[…]-3′ and 5′-[…]-3′) were used to provide an internal control for the amount of template in the PCR reactions.

visual acuity = details: Phase III, at 24 months, up to; cited from earlier work
[4] = 0.1% drops 4 times a day for 14 days
[5] = eyedrops 4 times/day, 2 months of diabetes

O=C(O)Cc1ccccc1Nc1c(Cl)cccc1Cl [diclofenac]
CNV lesions at Bruch's membrane rupture sites vs vehicle [1, 4]: no difference from vehicle-treated eyes

O=C(c1ccccc1)c1ccc2n1CCC2C(=O)O (centres unmarked) [ketorolac tromethamine]
size of CNV lesions vs vehicle ([1]; 0.5% drops 4 times a day for 1 week): no difference in the size of CNV lesions between the two groups | survival ([1]; 0.5% drops or vehicle 4 times a day for 1 week): All mice survived | CNV vs vehicle in surviving mice ([1]; 0.5% drops, 2 weeks, numbers insufficient for statistics): did not appear to have less CNV than mice treated with vehicle | mortality ([1]; 0.5% drops, two weeks): high mortality

NC(=O)Cc1cccc(C(=O)c2ccccc2)c1N [nepafenac, 2-Amino-3-benzoyl-phenylacetamide]
retinal (preretinal) neovascularization vs vehicle ([2]; 0.1% drops 4 times a day): significantly less retinal neovascularization; also recorded: significantly less preretinal NV | retinal (preretinal) neovascularization vs vehicle ([2]; 0.5% drops 4 times a day): significantly less retinal neovascularization; also recorded: significantly less preretinal NV | inhibition of preretinal neovascularization ([2]; topical, mouse OIR (FIG. 11)): inhibits preretinal neovascularization | protection against OP (oscillatory potential) delays, ERG ([3]; 0.3% topical, chronic dosing): completely protected | inhibition of morphologic vascular changes ([3]; 9 months of diabetes, STZ-diabetic rat (FIG. 12)): inhibits morphologic vascular changes present at 9 months of diabetes | diabetes-induced activation of caspases 3 and 6 in retina [3, 5]: partially inhibited | retinal VEGF or NO levels [3, 5]: no effect | TUNEL-positive capillary cells, acellular capillaries and pericyte ghosts ([3]; eyedrops 4 times/day, chronic dosing (9 months)): significantly inhibited all of these retinal abnormalities | corneal protease activity vs vehicle ([3]; topical, after 9 months of diabetes): No significant changes | OP summed latency (TTP) vs nondiabetic control animals ([3]; topical, chronic dosing): statistically no different than nondiabetic control animals | CNV lesions at Bruch's membrane rupture sites vs vehicle ([1]; 0.03% drops 4 times a day for 14 days): significantly smaller areas of CNV at Bruch's membrane rupture sites than did eyes treated with vehicle | CNV lesions at Bruch's membrane rupture sites vs vehicle ([1]; 0.03% drops 4 times a day for 14 days, listed as nepafanac): significantly smaller than those in eyes treated with vehicle | CNV lesions at Bruch's membrane rupture sites vs vehicle [1, 4]: significantly smaller areas of CNV at Bruch's membrane rupture sites than did eyes treated with vehicle | CNV lesions at Bruch's membrane rupture sites vs vehicle ([1]; 0.1% drops 4 times a day for 14 days, listed as nepafanac): significantly smaller than those in eyes treated with vehicle | CNV area vs vehicle ([1]; 0.1% drops 4 times a day, 2 weeks, first experiment): significantly smaller CNV lesions than treatment with vehicle | area of CNV in treated eye compared to vehicle-treated fellow eye ([1]; 0.1% drops in one eye, vehicle in fellow eye): significantly less | CNV area vs vehicle ([1]; 0.5% drops 4 times a day, 2 weeks): significantly smaller CNV lesions than treatment with vehicle | inhibition of laser-induced choroidal neovascularization ([1]; topical, mouse (FIG. 10)): inhibits laser-induced choroidal neovascularization | retinal VEGF mRNA vs vehicle (VEGF mRNA; 0.1% drops 4 times a day): less VEGF mRNA than retinas from eyes treated with vehicle | retinal VEGF mRNA vs vehicle (VEGF mRNA; 0.5% drops 4 times a day): less VEGF mRNA than retinas from eyes treated with vehicle

B1: ranibizumab (antibody, chains of the INN, looked up, V domains shown)
VH: EVQLVESGGGLVQPGGSLRLSCAASGYDFTHYGMNWVRQAPGKGLEWVGWINTYTGEPTYAADFKRRFTFSLDTSKSTAYLQMNSLRAEDTAVYYCAKYPYYYGTSHWYFDVWGQGTLVTVSS
VL: DIQLTQSPSSLSASVGDRVTITCSASQDISNYLNWYQQKPGKAPKVLIYFTSSLHSGVPSRFSGSGSGTDFTLTISSLQPEDFATYYCQQYSTVPWTFGQGTKVEIK
modifications: Fab
patients with improved visual acuity (visual acuity): 35-40%
